Assay results published in ChEMBL document CHEMBL1147770, “Design, synthesis and structure-activity relationships of new phosphinate inhibitors of MurD” (Bioorg Med Chem Lett, 2006).

Legend:
[1] = target: T1, UDP-N-acetylmuramoylalanine--D-glutamate ligase (Escherichia coli K-12) (UniProt P14900); assay: Residual activity of MurD from Escherichia coli at 1 mM
T1 sequence (whole entry): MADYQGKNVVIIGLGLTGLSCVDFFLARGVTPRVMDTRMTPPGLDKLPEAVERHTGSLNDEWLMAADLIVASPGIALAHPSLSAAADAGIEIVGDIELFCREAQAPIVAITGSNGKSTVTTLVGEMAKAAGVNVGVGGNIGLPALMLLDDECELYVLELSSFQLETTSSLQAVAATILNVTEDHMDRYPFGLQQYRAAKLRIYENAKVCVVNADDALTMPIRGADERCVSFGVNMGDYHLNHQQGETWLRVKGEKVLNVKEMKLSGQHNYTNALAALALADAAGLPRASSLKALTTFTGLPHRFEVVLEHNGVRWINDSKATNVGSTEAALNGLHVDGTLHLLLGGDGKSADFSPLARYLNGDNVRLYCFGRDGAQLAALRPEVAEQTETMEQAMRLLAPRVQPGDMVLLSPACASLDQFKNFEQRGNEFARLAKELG

[2] = target: T2, UDP-N-acetylmuramoylalanine--D-glutamate ligase (Escherichia coli K-12, UniProt P14900); assay: Inhibitory activity against MurD from Escherichia coli
T2 sequence (P14900 whole entry): T1 sequence (whole entry)

[3] = target: T3, UDP-N-acetylmuramoylalanine--D-glutamate ligase (Streptococcus pneumoniae serotype 4 (strain ATCC BAA-334 / TIGR4), UniProt Q97RU8); assay: Inhibitory activity against MurD from Streptococcus pneumoniae
T3 sequence (Q97RU8 whole entry): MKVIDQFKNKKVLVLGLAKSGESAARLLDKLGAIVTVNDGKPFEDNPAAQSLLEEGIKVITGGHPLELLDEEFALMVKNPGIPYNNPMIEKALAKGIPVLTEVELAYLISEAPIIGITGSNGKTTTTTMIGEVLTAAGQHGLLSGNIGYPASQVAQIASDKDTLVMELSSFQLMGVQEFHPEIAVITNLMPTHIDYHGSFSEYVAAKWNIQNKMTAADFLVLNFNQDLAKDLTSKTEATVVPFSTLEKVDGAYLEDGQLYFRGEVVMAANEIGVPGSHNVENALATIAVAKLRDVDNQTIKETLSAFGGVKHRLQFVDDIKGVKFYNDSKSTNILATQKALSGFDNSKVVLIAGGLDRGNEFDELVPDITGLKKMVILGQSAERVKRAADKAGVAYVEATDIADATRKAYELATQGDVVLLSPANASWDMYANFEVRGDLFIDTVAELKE

Structure (SMILES) | Activity [1] | IC50 [2] | IC50 [3]
CC(NS(=O)(=O)Cc1ccccc1[N+](=O)[O-])P(=O)(O)CC(CCC(=O)O)C(=O)O (configuration not stated) | 30% |  | 
CC(NC(=O)[C@@H](C)NS(=O)(=O)Cc1ccc([N+](=O)[O-])cc1)P(=O)(O)CC(CCC(=O)O)C(=O)O (some centres not stated) | 8% | 78 µM | 
CC(C)CC(NC(=O)OCc1ccccc1)P(=O)(O)CC(CCC(=O)O)C(=O)O (configuration not stated) | 65% |  | 
CC(NC(=O)[C@H](C)NS(=O)(=O)Cc1ccc([N+](=O)[O-])cc1)P(=O)(O)CCC(=O)O (some centres not stated) | 100% |  | 
CC(NS(=O)(=O)Cc1ccc(C(F)(F)F)cc1)P(=O)(O)CC(CCC(=O)O)C(=O)O (configuration not stated) | 50% |  | 
CC(NS(=O)(=O)c1cccc([N+](=O)[O-])c1)P(=O)(O)CC(CCC(=O)O)C(=O)O (configuration not stated) | 52% |  | 
CC(NS(=O)(=O)c1ccc2ccccc2c1)P(=O)(O)CC(CCC(=O)O)C(=O)O (configuration not stated) | 55% |  | 
CC(NC(=O)/C=C/c1cccc(O)c1)P(=O)(O)CC(CCC(=O)O)C(=O)O (configuration not stated) | 23% |  | 
CC(NC(=O)[C@@H](C)NS(=O)(=O)Cc1cccc([N+](=O)[O-])c1)P(=O)(O)CC(CCC(=O)O)C(=O)O (some centres not stated) | 19% |  | 
CC(NC(=O)OCc1ccccc1)P(=O)(O)CCC(=O)O (configuration not stated) | 92% |  | 
CC(NC(=O)/C=C/c1ccc2c(c1)OCO2)P(=O)(O)CC(CCC(=O)O)C(=O)O (configuration not stated) |  | 95 µM | 
CC(NS(=O)(=O)Cc1ccc(F)cc1Cl)P(=O)(O)CC(CCC(=O)O)C(=O)O (configuration not stated) | 37% |  | 
CC(NS(=O)(=O)Cc1ccccc1)P(=O)(O)CC(CCC(=O)O)C(=O)O (configuration not stated) | 40% |  | 
CC(C)C(NC(=O)OCc1ccccc1)P(=O)(O)CC(CCC(=O)O)C(=O)O (configuration not stated) | 66% |  | 
CC(NS(=O)(=O)Cc1cccc(C(F)(F)F)c1)P(=O)(O)CC(CCC(=O)O)C(=O)O (configuration not stated) | 49% |  | 
CC(NC(=O)/C=C/c1ccc2c(c1)OCO2)P(=O)(O)CCC(=O)O (configuration not stated) | 91% |  | 
CC(NS(=O)(=O)c1ccccc1)P(=O)(O)CC(CCC(=O)O)C(=O)O (configuration not stated) | 54% |  | 
CC(NC(=O)OCc1ccccc1)P(=O)(O)CC(CCC(=O)O)C(=O)O (configuration not stated) | 41% |  | 100 µM
CC(NC(=O)Cc1ccc2c(c1)OCO2)P(=O)(O)CC(CCC(=O)O)C(=O)O (configuration not stated) | 36% |  | 
CC(NS(=O)(=O)Cc1ccc([N+](=O)[O-])cc1)P(=O)(O)CC(CCC(=O)O)C(=O)O (configuration not stated) | 47% |  | 
CC(NC(=O)/C=C/c1ccccc1)P(=O)(O)CC(CCC(=O)O)C(=O)O (configuration not stated) | 28% | 432 µM | 
CC(NC(=O)[C@@H](C)NC(=O)Cc1ccc2c(c1)OCO2)P(=O)(O)CC(CCC(=O)O)C(=O)O (some centres not stated) | 44% |  | 
CCC(C)C(NC(=O)OCc1ccccc1)P(=O)(O)CC(CCC(=O)O)C(=O)O (configuration not stated) | 83% |  | 
CC(NS(=O)(=O)Cc1cccc([N+](=O)[O-])c1)P(=O)(O)CC(CCC(=O)O)C(=O)O (configuration not stated) | 22% |  | 
